Measurements reported in PMC4303209, “A novel phosphatidylinositol 3-kinase (PI3K) inhibitor directs a potent FOXO-dependent, p53-independent cell cycle arrest phenotype characterized by the differential induction of a subset of FOXO-regulated genes” (Breast Cancer Research : BCR, 2014).

Test system: MCF-7 breast cancer cells
Test: Microarray gene expression analysis (Agilent whole human genome 4 x 44K; compound vs DMSO, LIMMA log2 fold change)
Format: cell-based
Details: Apoptosis genes

Cn1ncc2c(N3CCOCC3)nc(-c3cccc(O)c3)nc21 [ETP-45658]
HSPD1 log2FC (Gene 3329): 0.324
HSPE1 log2FC (Gene 3336): -0.110
HTR2B log2FC (Gene 3357): -0.636
IAPP log2FC (Gene 3375): -0.105
ID1 log2FC (Gene 3397): -0.206
ID3 log2FC (Gene 3399): -0.237
IFI16 log2FC (Gene 3428): 0.357
IFI27 log2FC (Gene 3429): -0.362
IFIT2 log2FC (Gene 3433): 1.724
IFIT3 log2FC (Gene 3437): 0.389
IFNG log2FC (Gene 3458): -0.055
IGBP1 log2FC (Gene 3476): 0.248
IGF1 log2FC (Gene 3479): 0.046
IGF1R log2FC (Gene 3480): 0.075
IGF2R log2FC (Gene 3482): 0.109
IGFBP3 log2FC (Gene 3486): -0.114
IKBKB log2FC (Gene 3551): 0.231
IL1B log2FC (Gene 3553): -0.057
IL1RN log2FC (Gene 3557): -0.173
IL2 log2FC (Gene 3558): -0.036
IL4 log2FC (Gene 3565): -0.060
IL6 log2FC (Gene 3569): 0.421
IL6R log2FC (Gene 3570): 0.499
IL6ST log2FC (Gene 3572): 0.387
IL7 log2FC (Gene 3574): 0.329
IL10 log2FC (Gene 3586): -0.054
TNFRSF9 log2FC (Gene 3604): -0.082
ING2 log2FC (Gene 3622): 0.424
INHBA log2FC (Gene 3624): -0.426
INHBB log2FC (Gene 3625): -1.024
INS log2FC (Gene 3630): -0.159
INPP5D log2FC (Gene 3635): -0.052
INSL3 log2FC (Gene 3640): -0.299
IRAK1 log2FC (Gene 3654): -0.289
IRF1 log2FC (Gene 3659): -0.225
IRF3 log2FC (Gene 3661): -0.604
IRF5 log2FC (Gene 3663): 1.125
IRF7 log2FC (Gene 3665): 0.214
ITGA1 log2FC (Gene 3672): 0.199
ITGA5 log2FC (Gene 3678): -0.764
ITGAV log2FC (Gene 3685): 0.634
ITGB1 log2FC (Gene 3688): 0.722
ITPR1 log2FC (Gene 3708): 0.270
JAG2 log2FC (Gene 3714): 0.300
JAK2 log2FC (Gene 3717): 0.353
JAK3 log2FC (Gene 3718): -0.320
JUN log2FC (Gene 3725): -0.912
KCNMA1 log2FC (Gene 3778): 0.256
KNG1 log2FC (Gene 3827): -0.104
KPNA1 log2FC (Gene 3836): -0.177
KPNB1 log2FC (Gene 3837): 0.586
KRT8 log2FC (Gene 3856): -0.518
KRT18 log2FC (Gene 3875): -0.481
LCK log2FC (Gene 3932): -0.268
LEP log2FC (Gene 3952): -0.061
LGALS7 log2FC (Gene 3963): -0.300
LIG4 log2FC (Gene 3981): 0.100
LMNA log2FC (Gene 4000): -0.311
LMNB1 log2FC (Gene 4001): -0.133
LRP6 log2FC (Gene 4040): -0.141
LTBR log2FC (Gene 4055): -0.240
LTK log2FC (Gene 4058): -0.048
LYN log2FC (Gene 4067): -0.239
SMAD3 log2FC (Gene 4088): 0.254
SMAD6 log2FC (Gene 4091): -0.277
MAL log2FC (Gene 4118): -0.683
MAX log2FC (Gene 4149): -0.288
MCF2 log2FC (Gene 4168): 0.044
MCL1 log2FC (Gene 4170): -1.365
MDK log2FC (Gene 4192): -0.110
MDM2 log2FC (Gene 4193): -0.059
MECP2 log2FC (Gene 4204): -0.162
MEF2A log2FC (Gene 4205): -0.315
MEF2C log2FC (Gene 4208): 0.262
MEF2D log2FC (Gene 4209): -0.705
MAP3K5 log2FC (Gene 4217): -0.666
MEN1 log2FC (Gene 4221): -0.273
KITLG log2FC (Gene 4254): -0.228
MGMT log2FC (Gene 4255): -0.305
MIF log2FC (Gene 4282): 0.242
MLH1 log2FC (Gene 4292): 0.538
MAP3K9 log2FC (Gene 4293): -0.899
MAP3K10 log2FC (Gene 4294): 0.297
MAP3K11 log2FC (Gene 4296): -0.949
MMP9 log2FC (Gene 4318): -0.727
MNAT1 log2FC (Gene 4331): 0.729
MNT log2FC (Gene 4335): 1.624
MPO log2FC (Gene 4353): 0.046
CITED1 log2FC (Gene 4435): -0.078
MSH2 log2FC (Gene 4436): 0.939
MSX1 log2FC (Gene 4487): -0.324
MUC1 log2FC (Gene 4582): -0.901
MUC2 log2FC (Gene 4583): -0.262
MUC5AC log2FC (Gene 4586): -0.379
MUSK log2FC (Gene 4593): -0.344
MX1 log2FC (Gene 4599): 0.147
MYC log2FC (Gene 4609): 0.554
MYD88 log2FC (Gene 4615): -0.689
GADD45B log2FC (Gene 4616): 0.642
NBN log2FC (Gene 4683): 0.839
NDUFS1 log2FC (Gene 4719): 0.459
NF1 log2FC (Gene 4763): 0.412
NFATC4 log2FC (Gene 4776): 0.112
NFE2L2 log2FC (Gene 4780): 0.727
NFKB1 log2FC (Gene 4790): -0.122
NFKBIA log2FC (Gene 4792): -0.281
NGFR log2FC (Gene 4804): -0.063
NKX3-1 log2FC (Gene 4824): -0.261
NME1 log2FC (Gene 4830): 0.168
NME2 log2FC (Gene 4831): 0.216
NME3 log2FC (Gene 4832): -0.214
NMT1 log2FC (Gene 4836): -0.046
NODAL log2FC (Gene 4838): -0.110
NOS3 log2FC (Gene 4846): -0.420
NOTCH2 log2FC (Gene 4853): 0.166
NPM1 log2FC (Gene 4869): 0.586
NPTX1 log2FC (Gene 4884): -0.350
NPY5R log2FC (Gene 4889): -0.068
SLC11A2 log2FC (Gene 4891): 0.211
NRAS log2FC (Gene 4893): -0.204
NTF3 log2FC (Gene 4908): -1.251
NTRK2 log2FC (Gene 4915): -0.357
NR4A2 log2FC (Gene 4929): 0.761
OCLN log2FC (Gene 4950): 0.639
OPA1 log2FC (Gene 4976): 0.527
TNFRSF11B log2FC (Gene 4982): 0.707
OSM log2FC (Gene 5008): 0.056
P2RX1 log2FC (Gene 5023): -0.067
P2RX4 log2FC (Gene 5025): 0.236
P2RX7 log2FC (Gene 5027): -0.509
SERPINB2 log2FC (Gene 5055): -0.075
PAK1 log2FC (Gene 5058): 0.117
PAK2 log2FC (Gene 5062): -0.170
PARK2 log2FC (Gene 5071): -0.177
PAWR log2FC (Gene 5074): 0.858
PAX3 log2FC (Gene 5077): -0.277
PAX4 log2FC (Gene 5078): -0.139
PAX7 log2FC (Gene 5081): -0.260
PCNT log2FC (Gene 5116): 0.317
PDCD1 log2FC (Gene 5133): -0.432
PDCD2 log2FC (Gene 5134): -0.150
PDE1A log2FC (Gene 5136): -0.227
PDK1 log2FC (Gene 5163): 0.562
PDK2 log2FC (Gene 5164): 1.064
PDK4 log2FC (Gene 5166): 0.792
PDPK1 log2FC (Gene 5170): 0.541
PHB log2FC (Gene 5245): -0.244
SERPINB9 log2FC (Gene 5272): -0.261
SERPINB10 log2FC (Gene 5273): 0.731
PIK3CA log2FC (Gene 5290): 0.795
PIM1 log2FC (Gene 5292): 1.131
PIK3R1 log2FC (Gene 5295): 0.328
PLAGL1 log2FC (Gene 5325): 0.310
PLAGL2 log2FC (Gene 5326): -1.493
PLK1 log2FC (Gene 5347): -0.287
PLSCR1 log2FC (Gene 5359): 0.433
PMAIP1 log2FC (Gene 5366): -1.093
